Measured values: US10045977B2, “Use of nalmefene in non-alcoholic steatohepatitis” (TAIWANJ PHARMACEUTICALS CO., LTD., priority 2016, dated 2018)

Columns and labels:
[1] = system: MCD diet fatty liver rats given E coli endotoxin (LPS); experiment: Methionine-choline-deficient (MCD) diet rat model with LPS second hit; format: in vivo, Sprague Dawley rats; details: for Prevention of liver injury following LPS in fatty liver rats: 0-30 mg/kg oral, FIG. 5; for Serum ALT change, in words: 6 h after LPS, p<0.05
Procedure: 20 Sprague Dawley rats were administered with Compound A by oral gavage once daily at 0, 5, 10, 20 or 30 mg/kg (4 rats/group) for 4 weeks. All animals were fed a methionine/choline deficient (MCD) diet (from Dyets, Inc) five times per week during the feeding period in order to produce a diet-induced fatty liver. Rats were weighed daily as well as food intake. At the end of four weeks, the rats were administered 2 mg/kg E coli endotoxin (LPS) IP and 6 hours later the rats were euthanized and liver tissue and serum collected. Liver and was harvested at time of death as was blood. Histology samples were also taken.

STAM model of NASH = experiment: In vivo efficacy study in STAM model of NASH; parameters: Steatosis score / Inflammation score / Ballooning score: scale not given here; details: for NAS (NAFLD Activity Score) compared with the Vehicle group, in words: HE-stained liver sections; for NAS (NAFLD Activity Score) compared with the Vehicle group, in words / Fibrosis area (Sirius red-positive area) compared with the Vehicle group: week 9; for Fibrosis area (Sirius red-positive area) compared with the Vehicle group: Sirius red-stained liver sections; for Ballooning score / Inflammation score / NAS (NAFLD activity score) / Steatosis score: mean ± SEM, twice daily from 6 to 9 weeks of age, Telmisartan 10 mg/kg oral, nalmefene/naltrexone 5 mg/kg s.c.
Description: FIG. 3 sets out representative photomicrographs of HE-stained sections of livers from STAM model of NASH. Sections were cut from paraffin blocks of liver tissue prefixed in Bouin's solution and stained with Lillie-Mayer's Hematoxylin and eosin solution.
To visualize collagen deposition, Bouin's-fixed left lateral liver sections were stained using picro-Sirius red solution (Waldeck, Germany). b) For quantitative analysis of fibrosis area, bright field images of Sirius red-stained sections were captured around the central vein using a digital camera (DFC295; Leica, Germany) at 200-fold magnification, and the positive areas in 5 fields/section were measured using ImageJ software (National Institute of Health, USA). Individual values and mean±SEM for each treatment group are presented.
General Procedure NASH was induced in male C57BL/6 mice by a single subcutaneous injection of 200 μg streptozotocin solution 2 days after birth and feeding with high fat diet (HFD, 57 kcal % fat, Cat# HFD32, CLEA Japan, Japan) after 4 weeks of age. The animals were divided into groups of six each and were orally administered vehicle (1% Tween80) at 10 mL/kg or Telmisartan at 10 mg/kg twice daily from 6 to 9 weeks of age. […] The animals were sacrificed at week 9.

[2] = system: p38 MAP kinase phosphorylation in Kupffer cells; experiment: LPS-induced p38 MAP kinase phosphorylation in Kupffer cells; format: cell-based, rat; details: Compound A 100 ng/mL; 5 and 20 min; n=3 replicates; FIG. 2
[3] = system: MCD diet fatty liver rats given E coli endotoxin (LPS); experiment: Methionine-choline-deficient (MCD) diet rat model with LPS second hit; format: in vivo, Sprague Dawley rats; details: 6 h after LPS 2 mg/kg IP, n=3, not statistically significant
Kupffer cells = experiment: LPS-stimulated release of TNF-α in Kupffer cells; format: cell-based, rat; details: E. coli LPS; supernatant TNF-α at 2, 4, 6 hours; FIG. 1
Procedure: Kupffer cells were isolated by enzymatic digestion and purified by centrifugal elutriation from normal rats and cultured overnight. They were then stimulated with E. coli LPS either without or with Compound A added to the medium. TNF-α content in the supernatant was measured at 2, 4, and 6 hours.

| Structure (SMILES) | Prevention of liver injury following LPS in fatty liver rats [1] | Prevention of liver injury following LPS in fatty liver rats ([1]; listed as Nalmefene) | Serum ALT change, in words ([1]; 20 mg/kg oral once daily 4 weeks) | Serum ALT ([1]; 30 mg/kg oral once daily 4 weeks, 6 h after LPS 2 mg/kg IP) | Serum ALT change, in words ([1]; 30 mg/kg oral once daily 4 weeks) | Liver histopathology finding ([1]; MCD and Compound A treated rats, FIG. 7) | Liver histopathology finding ([1]; MCD+LPS+Compound A treated rats, FIG. 7) | Hepatic fat accumulation (histopathology) ([1]; treated rats compared to control, FIG. 7) | Mortality during the treatment period (STAM model of NASH; 5 mg/kg s.c. twice daily, before week 9) | NAS (NAFLD Activity Score) compared with the Vehicle group, in words (STAM model of NASH) | Fibrosis area (Sirius red-positive area) compared with the Vehicle group (STAM model of NASH) | Ballooning score (STAM model of NASH) | Inflammation score (STAM model of NASH) | NAS (NAFLD activity score) (STAM model of NASH) | Steatosis score (STAM model of NASH) | LPS-induced p38 MAP kinase phosphorylation [2] | Decrease of elevated serum ALT levels ([3]; 5 mg/kg oral once daily 4 weeks) [%] | Decrease of elevated serum ALT levels ([3]; 10 mg/kg oral once daily 4 weeks) [%] | LPS/time-dependent increase in TNF-α released by Kupffer cells (Kupffer cells) | Mean body weight during the treatment period (STAM model of NASH; 6 to 9 weeks of age) |
| --- | --- | --- | --- | --- | --- | --- | --- | --- | --- | --- | --- | --- | --- | --- | --- | --- | --- | --- | --- | --- |
| C=C1CC[C@@]2(O)C3Cc4ccc(O)c5c4C2(CCN3CC2CC2)C1O5 (stereo in doubt) [Compound A, 17-cyclopropylmethyl-4,5α-epoxy-6-methylenemorphinan-3,14-diol] | dose-dependent prevention of liver injury | demonstrated efficacy in preventing inflammatory liver damage | further decrease that was significant | 94.9+/−5.5 U/L | further decrease that was significant | slight periportal chronic inflammation (mild nonspecific chronic hepatitis) | slight periportal chronic inflammation | prevents hepatic fat accumulation | one out of six mice was found dead | tended to show decrease | tended to shown decrease | 0.40 ± 0.24 | 1.80 ± 0.20 | 3.00 ± 0.63 | 0.80 ± 0.49 | reduced | ~50 | ~50 | inhibited | – |
| O=C1CC[C@@]2(O)C3Cc4ccc(O)c5c4C2(CCN3CC2CC2)C1O5 (stereo in doubt) [Compound B, 17-cyclopropylmethyl-4,5α-epoxy-6-oxomorphinan-3,14-diol] | – | – | – | – | – | – | – | – | – | significant decreases | significantly decreased | 0.00 ± 0.00 | 1.67 ± 0.33 | 2.17 ± 0.40 | 0.50 ± 0.22 | – | – | – | – | – |
| CCCc1nc2c(C)cc(-c3nc4ccccc4n3C)cc2n1Cc1ccc(-c2ccccc2C(=O)O)cc1 [Telmisartan] | – | – | – | – | – | – | – | – | – | significant decreases | significantly decreased | 1.00 ± 0.26 | 1.17 ± 0.48 | 2.67 ± 0.56 | 0.50 ± 0.22 | – | – | – | – | gradually decreased |
